# Tests used:
# [1] = biological target: T1, Muscarinic acetylcholine receptor M1 (Homo sapiens, UniProt P11229); format: functional, cell-based
# T1 sequence (P11229 whole entry): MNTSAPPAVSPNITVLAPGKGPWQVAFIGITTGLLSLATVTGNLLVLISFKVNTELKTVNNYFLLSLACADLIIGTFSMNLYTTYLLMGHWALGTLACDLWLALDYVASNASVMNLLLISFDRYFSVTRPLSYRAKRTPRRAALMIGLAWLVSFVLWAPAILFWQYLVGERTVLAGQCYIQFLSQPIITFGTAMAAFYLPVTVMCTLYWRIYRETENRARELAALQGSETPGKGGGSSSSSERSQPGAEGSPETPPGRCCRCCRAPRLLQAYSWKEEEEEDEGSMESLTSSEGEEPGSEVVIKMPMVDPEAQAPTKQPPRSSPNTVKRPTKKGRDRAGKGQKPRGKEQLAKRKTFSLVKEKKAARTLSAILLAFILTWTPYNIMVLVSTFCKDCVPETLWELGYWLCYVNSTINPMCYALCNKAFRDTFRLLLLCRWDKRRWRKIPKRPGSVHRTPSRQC
# Adenosine receptor A3 = biological target: T2, Adenosine receptor A3 (Homo sapiens, UniProt P0DMS8)
# T2 sequence (P0DMS8 whole entry): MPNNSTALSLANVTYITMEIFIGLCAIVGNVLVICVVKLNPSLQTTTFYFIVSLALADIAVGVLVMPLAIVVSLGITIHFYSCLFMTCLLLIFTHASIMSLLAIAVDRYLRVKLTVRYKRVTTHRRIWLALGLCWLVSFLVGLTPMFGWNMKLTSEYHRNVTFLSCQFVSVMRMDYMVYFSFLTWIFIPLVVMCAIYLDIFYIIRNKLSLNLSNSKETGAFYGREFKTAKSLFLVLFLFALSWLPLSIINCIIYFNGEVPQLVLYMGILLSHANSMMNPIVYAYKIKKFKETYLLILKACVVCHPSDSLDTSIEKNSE
# [2] = biological target: T3, Alpha-1A adrenergic receptor (Homo sapiens, UniProt P35348); format: functional, cell-based
# T3 sequence (P35348 whole entry): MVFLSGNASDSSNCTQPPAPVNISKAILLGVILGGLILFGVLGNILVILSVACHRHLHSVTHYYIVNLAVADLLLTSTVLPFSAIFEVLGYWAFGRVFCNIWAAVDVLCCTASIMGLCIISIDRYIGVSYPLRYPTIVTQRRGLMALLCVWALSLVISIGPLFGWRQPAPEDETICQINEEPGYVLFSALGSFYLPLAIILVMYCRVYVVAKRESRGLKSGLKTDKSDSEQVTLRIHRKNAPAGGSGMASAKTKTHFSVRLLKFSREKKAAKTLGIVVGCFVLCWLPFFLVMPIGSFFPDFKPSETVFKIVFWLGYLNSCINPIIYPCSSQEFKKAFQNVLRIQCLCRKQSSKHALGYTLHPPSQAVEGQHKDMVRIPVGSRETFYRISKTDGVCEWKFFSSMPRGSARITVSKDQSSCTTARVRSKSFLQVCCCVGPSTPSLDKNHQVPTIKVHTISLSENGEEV
# [3] = biological target: Growth hormone secretagogue receptor type 1 (Homo sapiens, UniProt Q92847)
# Sequence of Growth hormone secretagogue receptor type 1 (Q92847 whole entry): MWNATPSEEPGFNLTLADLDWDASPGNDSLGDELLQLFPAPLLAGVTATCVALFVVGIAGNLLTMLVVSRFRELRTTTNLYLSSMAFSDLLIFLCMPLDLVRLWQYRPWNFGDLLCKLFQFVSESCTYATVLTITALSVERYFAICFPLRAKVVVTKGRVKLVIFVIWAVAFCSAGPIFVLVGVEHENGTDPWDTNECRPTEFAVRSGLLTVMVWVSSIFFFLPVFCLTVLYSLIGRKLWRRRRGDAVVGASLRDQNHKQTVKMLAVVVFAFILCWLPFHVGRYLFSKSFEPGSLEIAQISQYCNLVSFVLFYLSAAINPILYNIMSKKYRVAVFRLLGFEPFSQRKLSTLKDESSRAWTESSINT
# [4] = biological target: T4, Muscarinic acetylcholine receptor M2 (Homo sapiens, UniProt P08172); format: functional, cell-based
# T4 sequence (P08172 whole entry): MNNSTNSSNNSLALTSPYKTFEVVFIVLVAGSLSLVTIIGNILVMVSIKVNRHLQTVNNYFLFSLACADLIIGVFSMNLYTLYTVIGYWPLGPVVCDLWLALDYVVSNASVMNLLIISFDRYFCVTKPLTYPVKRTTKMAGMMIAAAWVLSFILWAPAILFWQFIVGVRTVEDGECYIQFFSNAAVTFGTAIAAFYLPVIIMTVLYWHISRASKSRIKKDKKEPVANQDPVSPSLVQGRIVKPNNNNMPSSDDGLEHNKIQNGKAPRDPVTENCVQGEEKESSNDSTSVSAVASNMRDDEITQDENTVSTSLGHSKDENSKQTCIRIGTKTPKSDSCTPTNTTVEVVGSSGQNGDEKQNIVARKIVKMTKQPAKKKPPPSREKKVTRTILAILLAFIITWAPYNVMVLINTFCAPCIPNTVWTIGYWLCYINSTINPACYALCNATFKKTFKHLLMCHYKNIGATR
# [5] = biological target: Kappa-type opioid receptor (Homo sapiens, UniProt P41145)
# Sequence of Kappa-type opioid receptor (P41145 whole entry): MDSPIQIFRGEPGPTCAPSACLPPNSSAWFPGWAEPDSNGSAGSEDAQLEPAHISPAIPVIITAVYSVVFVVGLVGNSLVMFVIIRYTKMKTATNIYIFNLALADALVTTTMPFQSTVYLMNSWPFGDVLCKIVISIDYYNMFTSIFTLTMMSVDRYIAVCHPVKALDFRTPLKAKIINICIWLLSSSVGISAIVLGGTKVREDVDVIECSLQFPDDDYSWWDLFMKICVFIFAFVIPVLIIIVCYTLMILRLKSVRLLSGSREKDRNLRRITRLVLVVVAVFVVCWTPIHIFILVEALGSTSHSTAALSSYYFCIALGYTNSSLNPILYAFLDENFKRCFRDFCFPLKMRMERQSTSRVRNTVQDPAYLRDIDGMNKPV
# [6] = biological target: T5, Type-1 angiotensin II receptor (Homo sapiens, UniProt P30556)
# T5 sequence (P30556 whole entry): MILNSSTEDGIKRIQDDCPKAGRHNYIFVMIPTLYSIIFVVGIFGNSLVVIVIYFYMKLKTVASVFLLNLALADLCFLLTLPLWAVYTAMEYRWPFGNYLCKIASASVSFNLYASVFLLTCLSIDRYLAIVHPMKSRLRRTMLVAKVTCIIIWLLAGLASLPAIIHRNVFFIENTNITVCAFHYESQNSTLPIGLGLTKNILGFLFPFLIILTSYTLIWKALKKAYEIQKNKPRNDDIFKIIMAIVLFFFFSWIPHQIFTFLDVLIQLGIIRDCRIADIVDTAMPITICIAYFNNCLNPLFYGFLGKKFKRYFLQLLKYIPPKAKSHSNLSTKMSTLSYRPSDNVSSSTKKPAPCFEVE
# Melanocortin receptor 3 = Melanocortin receptor 3 (Homo sapiens, UniProt P41968)
# Sequence of Melanocortin receptor 3 (P41968 whole entry): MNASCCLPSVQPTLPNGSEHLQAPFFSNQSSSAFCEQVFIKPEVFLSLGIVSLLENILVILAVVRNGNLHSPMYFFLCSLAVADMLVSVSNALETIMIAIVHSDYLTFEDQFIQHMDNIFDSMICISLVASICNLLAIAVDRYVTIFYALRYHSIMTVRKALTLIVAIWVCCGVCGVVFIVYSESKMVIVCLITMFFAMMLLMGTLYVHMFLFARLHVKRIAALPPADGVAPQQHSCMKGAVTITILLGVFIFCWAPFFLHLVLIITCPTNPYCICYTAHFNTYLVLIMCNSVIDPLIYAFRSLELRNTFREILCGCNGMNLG
# [7] = biological target: T6, 5-hydroxytryptamine receptor 1A (Homo sapiens, UniProt P08908); format: functional, cell-based
# T6 sequence (P08908 whole entry): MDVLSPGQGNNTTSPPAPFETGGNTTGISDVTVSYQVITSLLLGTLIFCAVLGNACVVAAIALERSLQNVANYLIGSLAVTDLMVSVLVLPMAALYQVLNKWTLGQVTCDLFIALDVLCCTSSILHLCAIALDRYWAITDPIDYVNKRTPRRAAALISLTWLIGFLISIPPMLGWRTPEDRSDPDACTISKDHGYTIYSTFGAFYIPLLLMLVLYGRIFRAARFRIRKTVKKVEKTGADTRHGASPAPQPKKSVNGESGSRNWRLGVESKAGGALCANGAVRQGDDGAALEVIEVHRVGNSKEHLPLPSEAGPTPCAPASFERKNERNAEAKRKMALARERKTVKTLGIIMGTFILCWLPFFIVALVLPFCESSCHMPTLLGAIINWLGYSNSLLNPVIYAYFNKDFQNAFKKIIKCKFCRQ
# Histamine H2 receptor = Histamine H2 receptor (Homo sapiens, UniProt P25021); format: functional, cell-based
# Sequence of Histamine H2 receptor (P25021 whole entry): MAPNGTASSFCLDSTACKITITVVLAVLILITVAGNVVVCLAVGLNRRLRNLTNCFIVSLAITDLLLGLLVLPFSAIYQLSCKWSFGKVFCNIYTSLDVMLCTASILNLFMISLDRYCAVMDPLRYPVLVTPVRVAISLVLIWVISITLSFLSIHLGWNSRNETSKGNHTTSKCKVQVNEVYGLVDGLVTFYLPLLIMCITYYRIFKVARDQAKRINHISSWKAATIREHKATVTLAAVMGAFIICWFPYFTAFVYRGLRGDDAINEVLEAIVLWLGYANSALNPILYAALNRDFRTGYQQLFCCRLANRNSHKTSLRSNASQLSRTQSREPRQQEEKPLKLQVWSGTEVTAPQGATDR
# [8] = biological target: T1, Muscarinic acetylcholine receptor M1; format: functional
# Also: assay procedure not described here.
SMILES,AC50 [1] [µM],AC50 (Adenosine receptor A3) [µM],AC50 [2] [µM],AC50 [3] [µM],AC50 [4] [µM],AC50 [5] [µM],AC50 [6] [µM],AC50 (Melanocortin receptor 3) [µM],AC50 [7] [µM],AC50 (Histamine H2 receptor) [µM],AC50 [8] [µM]
COc1nccnc1NS(=O)(=O)c1ccc(N)cc1,> 30,–,–,–,–,–,–,–,–,–,–
O=C(Nc1cccc2c(=O)cc(-c3nnn[nH]3)oc12)c1ccc(OCCCCc2ccccc2)cc1,> 30,–,–,–,–,–,–,–,–,–,–
NC(=O)c1nc(F)c[nH]c1=O,> 30,–,–,–,–,–,–,–,–,–,–
CN(C)CCCN1C(=O)c2cc([N+](=O)[O-])ccc2Oc2ccccc21,> 30,–,–,–,–,–,–,–,–,–,–
CC(/C=C1\SC(=S)N(CC(=O)O)C1=O)=C\c1ccccc1,–,20,25,> 30,> 30,28,1.5,> 30,> 30,> 30,–
CNCC[C@@H](Oc1ccccc1C)c1ccccc1 [ATOMOXETINE],–,> 30,> 30,> 30,–,1.8,> 30,> 30,–,> 30,–
O=C(O)COc1nn(Cc2ccccc2)c2ccccc12 [BENDAZAC],> 30,–,–,–,–,–,–,–,–,–,–
Cc1ccc([C@@H]2O[C@H](CO)[C@@H](O)[C@H](O)[C@H]2O)cc1Cc1ccc(-c2ccc(F)cc2)s1 [CANAGLIFLOZIN ANHYDROUS],> 30,–,–,–,–,–,–,–,–,–,–
C=C(C)[C@@H]1CCC(C)=C[C@H]1c1c(O)cc(CCCCC)cc1O [CANNABIDIOL],–,–,> 10,> 30,> 0.3,–,> 30,25,> 10,–,> 30
CO/N=C(\C(=O)N[C@@H]1C(=O)N2C(C(=O)O)=C(COC(N)=O)CS[C@H]12)c1ccco1 [CEFUROXIME],–,> 30,> 30,> 30,> 30,> 30,> 30,> 30,> 30,> 30,> 30
CN(C)CCN(Cc1ccc(Cl)cc1)c1ccccn1 [CHLOROPYRAMINE],2.27,–,–,–,–,–,–,–,–,–,–
O=C(O)c1cc(=O)c2ccccc2o1 [CHROMOCARB],> 30,–,–,–,–,–,–,–,–,–,–
CN(CC(=O)O)C(=N)N [CREATINE],> 30,–,–,–,–,–,–,–,–,–,–
N[C@@H](CSSC[C@H](N)C(=O)O)C(=O)O [CYSTINE],> 30,–,–,–,–,–,–,–,–,–,–
Cn1c(=O)c2c(ncn2CC(O)CO)n(C)c1=O (configuration not stated) [DYPHYLLINE],–,> 30,–,–,–,–,–,–,–,–,–
C[C@]12CC[C@@H]3c4ccc(O)cc4CC[C@H]3[C@@H]1CC[C@@H]2OC(=O)CCC1CCCC1 [ESTRADIOL CYPIONATE],> 30,–,–,–,–,–,–,–,–,–,–
CCC(=O)O[C@@H](O[P@](=O)(CCCCc1ccccc1)CC(=O)N1C[C@H](C2CCCCC2)C[C@H]1C(=O)O)C(C)C [FOSINOPRIL],–,–,> 30,–,> 30,> 30,–,–,> 30,> 30,> 30
Nc1nc(O)c2ncn(COC(CO)CO)c2n1 [GANCICLOVIR],–,> 30,> 30,> 30,> 30,> 30,> 30,> 30,> 30,> 30,–
C[C@]12CCC(=O)C=C1CC[C@@H]1[C@@H]2[C@@H](O)C[C@@]2(C)[C@H]1CC[C@]2(O)C(=O)COC(=O)CCC(=O)O [HYDROCORTISONE HEMISUCCINATE ANHYDROUS],> 30,–,–,–,–,–,–,–,–,–,–
N=C(N)NCc1cccc([123I])c1 [IOBENGUANE I 123],> 30,–,–,–,–,–,–,–,–,–,–
CC(C)(N)C(=O)N[C@H](Cc1c[nH]c2ccccc12)C(=O)N[C@H](Cc1c[nH]c2ccccc12)NC=O [MACIMORELIN],> 30,–,–,–,–,–,–,–,–,–,–
CC[C@@H](CO)NC(=O)[C@@H]1C=C2c3cccc4[nH]cc(c34)C[C@H]2N(C)C1 [METHYLERGONOVINE],–,> 30,–,> 30,> 30,> 30,> 30,> 30,0.0144,0.058,–
CNCCC=C1c2ccccc2CCc2ccccc21 [NORTRIPTYLINE],–,> 30,0.036,> 30,1.9,–,> 30,11,> 30,> 30,–
CN(C)c1cc(CNCC(C)(C)C)c(O)c2c1C[C@H]1C[C@H]3[C@H](N(C)C)C(O)=C(C(N)=O)C(=O)[C@@]3(O)C(O)=C1C2=O [OMADACYCLINE],–,25,> 30,> 30,24.3,–,> 30,> 30,> 30,> 30,29
COc1ccc(Cc2nccc3cc(OC)c(OC)cc23)cc1OC [PAPAVERINE],–,> 30,> 30,> 30,> 30,> 30,> 30,> 30,> 30,> 30,–
CNC(=O)c1cc(Oc2ccc(NC(=O)Nc3ccc(Cl)c(C(F)(F)F)c3)c(F)c2)ccn1 [REGORAFENIB],–,2.51,> 30,–,> 30,–,–,> 30,–,–,> 30
O=C(Nc1c(Cl)cncc1Cl)c1ccc(OC(F)F)c(OCC2CC2)c1 [ROFLUMILAST],–,> 30,> 30,> 30,> 30,> 30,> 30,> 30,> 30,> 30,> 30
CN1CCN(CCCN2c3ccccc3Sc3ccc(S(=O)(=O)N(C)C)cc32)CC1 [THIOPROPERAZINE],–,–,1,–,12,> 30,–,–,–,> 30,12
Cc1cc(CC(=O)O)n(C)c1C(=O)c1ccc(Cl)cc1 [ZOMEPIRAC],–,> 30,> 30,> 30,> 30,> 30,> 30,> 30,> 30,> 30,> 30

# — ChEMBL document CHEMBL5291721, “A preclinical secondary pharmacology resource illuminates target-adverse drug reaction associations of marketed drugs” (Nat Commun, 2023)
